The values that follow come from paper PMC4279406, “Simultaneous targeting of PI3Kδ and a PI3Kδ-dependent MEK1/2-Erk1/2 pathway for therapy in pediatric B-cell acute lymphoblastic leukemia” (Oncotarget, 2014).

For experiment [1], the system named is primary non B-ALL leukemia cells. Nature of the experiment: Viability of primary mononuclear cells from pediatric patients (CCK-8). In kind it is cell-based, human. As to conditions: 72 h, 1/7 specimens. The source says: (§1) Figure 3 PI3Kδ inhibition led to blockade of B cell leukemia cells proliferation via induction of cell cycle arrest and apoptosis Raji cells treated with X-370 for indicated times and at serial diluted concentrations were subjected to Annexin V-FITC/PI staining (A) and PI staining (B) and FACS analysis to show cell apoptosis and cell cycle distribution respectively. (C) X-370 inhibited proliferation of human leukemia primary cells. Freshly isolated human primary mononuclear cells from bone marrow samples of patients were treated with X-370 for 72 h and cell viability was assayed using CCK-8 assay. IC50s of each sample were plotted where 10 μM was assigned to specimens with IC50 >10 μM. Each symbol represents an individual patient sample. […]
(§2) Cell viability was assessed using Cell Counting Kit (CCK-8, Dojindo, Japan) following the manufacturer's protocol and OD values were measured with a Spectramax M5 plate reader (Molecular Devices, Sunnyvale, CA)[45].
(§3) Bone marrow was obtained from patients after provision of informed consent using guidelines approved by the Committee on the Use of Human Subjects in Research at Shanghai Jiaotong University or Shanghai Fudan University under a protocol approved by the Review Board. […] Cell viability and phosphorylated Akt and Erk1/2 were then detected.

A further experiment concerns primary B-ALL cells. The experiment is described as above. In kind it is cell-based, human. As to conditions: 72 h, 8/13 specimens.
From the text: as §1, §2, §3

In a further experiment the test system is Raji cells. Nature of the experiment: Cell cycle distribution (PI staining, FACS). As to conditions: 24 h. In kind it is cell-based, human.
From the text: as §1

The target in a further experiment is T1, PIP5K1α (Homo sapiens, UniProt Q99755).
T1 construct: purchased Millipore (Kinase Profiler Services, United Kingdom)
T1 sequence (Q99755 whole entry, species assumed): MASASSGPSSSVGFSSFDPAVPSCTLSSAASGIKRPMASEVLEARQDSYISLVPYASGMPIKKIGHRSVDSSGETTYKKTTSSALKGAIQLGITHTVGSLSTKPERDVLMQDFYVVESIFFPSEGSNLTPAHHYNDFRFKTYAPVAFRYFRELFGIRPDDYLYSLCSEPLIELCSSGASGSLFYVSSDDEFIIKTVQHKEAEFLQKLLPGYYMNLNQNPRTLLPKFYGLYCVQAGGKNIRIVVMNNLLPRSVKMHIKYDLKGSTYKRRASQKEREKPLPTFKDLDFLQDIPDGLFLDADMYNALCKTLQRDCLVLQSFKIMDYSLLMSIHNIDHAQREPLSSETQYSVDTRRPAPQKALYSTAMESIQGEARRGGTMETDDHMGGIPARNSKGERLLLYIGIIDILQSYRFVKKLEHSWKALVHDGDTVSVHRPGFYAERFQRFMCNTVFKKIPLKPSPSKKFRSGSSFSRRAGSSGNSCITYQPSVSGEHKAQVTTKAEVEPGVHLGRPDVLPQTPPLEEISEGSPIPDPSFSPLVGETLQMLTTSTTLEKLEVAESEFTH
The experiment is described as follows: Kinase Profiler lipid kinase relative activity. It counts as biochemical. As to conditions: X-370 10 μM, compared to DMSO control. As for the experimental part:
(§4) Figure 1 Structure of X-370 and its inhibitory activity against lipid kinases (A) Chemical structure of X-370. (B) X-370 docked to the crystal structure of PI3Kδ. The model was generated based on the co-crystal structure of PI3Kδ and ZSTK474 (PDB ID: 2WXL). (C) IC50 of X-370 against PI3Kδ increased along with ATP concentration. […] Data was obtained from Kinase Profiler Services (Millipore, United Kingdom). Briefly, X-370 was solved in DMSO at a concentration of 10 mM, 10-point kinase inhibitory activity was measured over concentrations in a half-log dilution series started at 1000 nM with ATP at a concentration consistent with Km of each isoform of class I PI3K and IC50s were calculated. Relative kinase activity in the presence of 10 μM X-370 compared to DMSO control was measured for the rest of lipid kinases. TEXT PRINTED IN THE PICTURE: (D) X-370: IC50 (nM): 7 (Isoform: PI3Kδ); IC50 (nM): 433 (Isoform: PI3Kα); IC50 (nM): >1,000 (Isoform: PI3Kγ); IC50 (nM): >1,000 (Isoform: PI3Kβ); Relative Activity (%) X-370 (10 μM): 55 (Lipid Kinases: PI3KC2α); Relative Activity (%) X-370 (10 μM): 63 (Lipid Kinases: PI3KC2γ); Relative Activity (%) X-370 (10 μM): 105 (Lipid Kinases: PIP4K2α); Relative Activity (%) X-370 (10 μM): 100 (Lipid Kinases: PIP5K1α); Relative Activity (%) X-370 (10 μM): 103 (Lipid Kinases: PIP5K1γ) DOUBTS OF THE COPYIST ABOUT THIS PICTURE: Panel D, left table (Isoform / IC50): no substance label is printed in this table; assigned to X-370, the only label printed in the panel (head of the right table)
(§5) In vitro kinase profile assays were analyzed by the Kinase Profiler Service (Millipore, United Kingdom) following its guidelines. A GST-tagged human p110δ and regulatory full-length p85 were co-expressed in insect cell Sf9. Recombinant protein was extracted by affinity purification. The PI3K kinase activity was determined in the increasing concentration of ATP and X-370 with PI3-Kinase HTRF™ Assay kit (Millipore) as described previously.

For the next experiment, the target named is T2, PI3KC2α (Homo sapiens, UniProt O00443).
T2 construct: purchased Millipore (Kinase Profiler Services, United Kingdom)
T2 sequence (O00443 whole entry, species assumed): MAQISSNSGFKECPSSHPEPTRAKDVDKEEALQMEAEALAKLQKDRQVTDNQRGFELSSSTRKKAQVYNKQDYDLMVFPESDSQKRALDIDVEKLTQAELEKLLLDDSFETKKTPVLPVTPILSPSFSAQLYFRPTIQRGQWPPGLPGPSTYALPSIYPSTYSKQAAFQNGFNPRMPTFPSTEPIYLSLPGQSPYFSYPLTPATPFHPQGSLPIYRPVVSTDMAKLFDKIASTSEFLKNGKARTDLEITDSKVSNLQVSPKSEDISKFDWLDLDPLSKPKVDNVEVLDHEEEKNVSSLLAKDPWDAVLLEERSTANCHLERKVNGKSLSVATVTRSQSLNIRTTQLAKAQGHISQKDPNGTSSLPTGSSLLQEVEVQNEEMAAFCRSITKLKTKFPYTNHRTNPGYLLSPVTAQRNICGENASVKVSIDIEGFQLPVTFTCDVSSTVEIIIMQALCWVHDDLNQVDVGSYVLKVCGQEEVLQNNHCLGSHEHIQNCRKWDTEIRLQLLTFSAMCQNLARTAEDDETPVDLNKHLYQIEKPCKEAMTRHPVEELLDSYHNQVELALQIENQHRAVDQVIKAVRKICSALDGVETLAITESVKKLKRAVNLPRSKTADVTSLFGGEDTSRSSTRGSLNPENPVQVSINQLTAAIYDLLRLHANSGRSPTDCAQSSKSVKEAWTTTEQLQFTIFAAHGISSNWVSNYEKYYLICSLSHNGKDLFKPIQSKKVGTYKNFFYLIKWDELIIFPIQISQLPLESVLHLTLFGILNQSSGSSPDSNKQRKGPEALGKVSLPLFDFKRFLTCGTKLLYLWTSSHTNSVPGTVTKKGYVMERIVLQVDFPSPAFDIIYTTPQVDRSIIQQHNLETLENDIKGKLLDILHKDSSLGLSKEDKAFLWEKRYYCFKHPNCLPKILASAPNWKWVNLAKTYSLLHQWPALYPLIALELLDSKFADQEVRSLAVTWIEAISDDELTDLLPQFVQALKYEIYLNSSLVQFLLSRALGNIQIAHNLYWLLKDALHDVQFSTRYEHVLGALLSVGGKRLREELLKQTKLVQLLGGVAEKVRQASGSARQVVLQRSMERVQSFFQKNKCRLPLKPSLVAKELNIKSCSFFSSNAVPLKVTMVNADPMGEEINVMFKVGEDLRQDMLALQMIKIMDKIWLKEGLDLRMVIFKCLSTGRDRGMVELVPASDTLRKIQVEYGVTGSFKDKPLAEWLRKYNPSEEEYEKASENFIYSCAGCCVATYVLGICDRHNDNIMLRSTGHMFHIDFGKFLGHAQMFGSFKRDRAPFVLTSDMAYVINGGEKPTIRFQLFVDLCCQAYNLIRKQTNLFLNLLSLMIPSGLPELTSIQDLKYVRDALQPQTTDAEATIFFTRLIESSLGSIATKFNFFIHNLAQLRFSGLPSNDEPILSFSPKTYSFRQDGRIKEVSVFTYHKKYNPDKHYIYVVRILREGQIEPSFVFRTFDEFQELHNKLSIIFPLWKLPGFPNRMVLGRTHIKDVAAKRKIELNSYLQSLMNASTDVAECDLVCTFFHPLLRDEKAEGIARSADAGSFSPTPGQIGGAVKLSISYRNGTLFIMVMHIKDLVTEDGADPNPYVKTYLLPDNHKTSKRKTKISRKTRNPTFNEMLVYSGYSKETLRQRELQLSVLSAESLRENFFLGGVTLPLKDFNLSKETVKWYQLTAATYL
Nature of the experiment: Kinase Profiler lipid kinase relative activity. It counts as biochemical. As to conditions: X-370 10 μM, compared to DMSO control. As for the experimental part: as §4, §5

For the next experiment, the target named is T3, PIP5K1γ (Homo sapiens, UniProt O60331).
T3 construct: purchased Millipore (Kinase Profiler Services, United Kingdom)
T3 sequence (O60331 whole entry, species assumed): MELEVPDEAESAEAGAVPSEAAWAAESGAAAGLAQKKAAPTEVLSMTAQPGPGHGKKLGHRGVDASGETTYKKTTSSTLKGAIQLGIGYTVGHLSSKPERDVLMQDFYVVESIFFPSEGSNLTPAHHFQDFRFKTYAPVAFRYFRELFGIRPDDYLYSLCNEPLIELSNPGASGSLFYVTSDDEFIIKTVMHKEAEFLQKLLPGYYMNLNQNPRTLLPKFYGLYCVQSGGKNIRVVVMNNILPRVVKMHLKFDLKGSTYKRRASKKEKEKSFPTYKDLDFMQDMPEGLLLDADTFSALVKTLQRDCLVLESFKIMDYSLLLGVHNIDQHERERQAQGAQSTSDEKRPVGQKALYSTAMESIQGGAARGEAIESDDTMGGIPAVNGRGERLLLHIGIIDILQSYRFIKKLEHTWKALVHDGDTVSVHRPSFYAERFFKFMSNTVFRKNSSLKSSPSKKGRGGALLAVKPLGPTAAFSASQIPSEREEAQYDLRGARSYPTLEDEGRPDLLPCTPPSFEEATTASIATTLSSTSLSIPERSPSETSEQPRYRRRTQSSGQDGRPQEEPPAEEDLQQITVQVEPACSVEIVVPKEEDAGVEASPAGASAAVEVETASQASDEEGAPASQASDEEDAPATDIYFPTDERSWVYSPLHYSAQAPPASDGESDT
The experiment is described as follows: Kinase Profiler lipid kinase relative activity. In kind it is biochemical. As to conditions: X-370 10 μM, compared to DMSO control. The protocol: as §4, §5

For another experiment, the target named is T4, PI3KC2γ (Homo sapiens, UniProt O75747).
T4 construct: purchased Millipore (Kinase Profiler Services, United Kingdom)
T4 sequence (O75747 whole entry, species assumed): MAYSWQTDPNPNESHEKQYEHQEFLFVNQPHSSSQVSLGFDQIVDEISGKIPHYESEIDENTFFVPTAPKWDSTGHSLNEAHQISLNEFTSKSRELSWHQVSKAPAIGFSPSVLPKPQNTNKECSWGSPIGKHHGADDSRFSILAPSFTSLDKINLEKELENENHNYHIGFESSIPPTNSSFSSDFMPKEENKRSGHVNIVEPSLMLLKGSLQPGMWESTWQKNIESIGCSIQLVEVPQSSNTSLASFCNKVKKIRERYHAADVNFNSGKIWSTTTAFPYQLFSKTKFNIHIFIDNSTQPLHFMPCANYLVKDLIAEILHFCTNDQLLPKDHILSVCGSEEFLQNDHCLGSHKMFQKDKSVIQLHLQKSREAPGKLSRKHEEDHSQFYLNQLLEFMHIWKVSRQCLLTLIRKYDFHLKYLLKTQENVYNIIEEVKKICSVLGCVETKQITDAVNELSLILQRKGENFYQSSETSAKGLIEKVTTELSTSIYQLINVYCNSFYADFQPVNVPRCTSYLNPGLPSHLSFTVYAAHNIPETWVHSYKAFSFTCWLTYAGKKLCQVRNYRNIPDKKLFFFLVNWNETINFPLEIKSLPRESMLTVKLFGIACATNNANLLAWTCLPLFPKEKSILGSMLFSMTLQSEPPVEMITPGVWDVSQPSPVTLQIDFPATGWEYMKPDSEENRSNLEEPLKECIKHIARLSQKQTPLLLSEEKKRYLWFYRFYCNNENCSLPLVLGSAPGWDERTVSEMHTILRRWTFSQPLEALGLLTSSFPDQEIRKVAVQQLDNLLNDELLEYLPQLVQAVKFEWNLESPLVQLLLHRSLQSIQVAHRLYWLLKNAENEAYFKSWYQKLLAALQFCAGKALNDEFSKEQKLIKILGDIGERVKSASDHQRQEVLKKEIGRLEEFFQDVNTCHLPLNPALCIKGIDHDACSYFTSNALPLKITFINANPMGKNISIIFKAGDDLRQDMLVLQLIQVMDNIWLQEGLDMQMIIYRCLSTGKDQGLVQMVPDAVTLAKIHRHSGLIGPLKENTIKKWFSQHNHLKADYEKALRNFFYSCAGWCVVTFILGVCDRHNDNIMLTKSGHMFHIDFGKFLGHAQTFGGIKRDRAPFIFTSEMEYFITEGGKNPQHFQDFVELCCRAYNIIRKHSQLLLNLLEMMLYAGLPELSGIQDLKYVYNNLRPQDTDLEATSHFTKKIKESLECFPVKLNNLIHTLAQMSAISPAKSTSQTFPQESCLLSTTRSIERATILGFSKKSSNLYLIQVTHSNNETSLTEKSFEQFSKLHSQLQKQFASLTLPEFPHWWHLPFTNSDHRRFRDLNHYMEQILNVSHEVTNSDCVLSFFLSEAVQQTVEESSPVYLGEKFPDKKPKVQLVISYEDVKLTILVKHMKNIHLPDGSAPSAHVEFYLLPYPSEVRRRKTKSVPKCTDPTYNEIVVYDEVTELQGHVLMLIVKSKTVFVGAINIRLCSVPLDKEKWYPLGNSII
The experiment is described as follows: Kinase Profiler lipid kinase relative activity. In kind it is biochemical. As to conditions: X-370 10 μM, compared to DMSO control. As for the experimental part: as §4, §5

For a further experiment, the target named is T5, PIP4K2α (Homo sapiens, UniProt P48426).
T5 construct: purchased Millipore (Kinase Profiler Services, United Kingdom)
T5 sequence (P48426 whole entry): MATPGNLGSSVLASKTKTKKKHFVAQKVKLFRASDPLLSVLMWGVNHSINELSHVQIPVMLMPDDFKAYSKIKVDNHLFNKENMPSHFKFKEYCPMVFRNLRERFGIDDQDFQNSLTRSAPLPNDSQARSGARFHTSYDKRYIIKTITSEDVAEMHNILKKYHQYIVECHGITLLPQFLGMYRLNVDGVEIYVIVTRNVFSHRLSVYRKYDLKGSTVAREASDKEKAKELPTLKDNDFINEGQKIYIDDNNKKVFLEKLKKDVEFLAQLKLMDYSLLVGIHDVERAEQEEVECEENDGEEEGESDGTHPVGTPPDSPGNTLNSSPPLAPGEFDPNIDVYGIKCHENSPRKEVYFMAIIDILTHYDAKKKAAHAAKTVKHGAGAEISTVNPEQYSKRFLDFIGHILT
Nature of the experiment: Kinase Profiler lipid kinase relative activity. In kind it is biochemical. As to conditions: X-370 10 μM, compared to DMSO control. As for the experimental part:
as §4, §5

`O=C(N1CCCC1)N1CCC(n2cnc3c(-n4c(C(F)F)nc5ccccc54)nc(N4CCOCC4)nc32)CC1` [X-370]: the “non B-ALL specimens sensitive with IC50<1 μM” value in experiment [1] worked out at 14%. Besides, in the experiment with primary B-ALL cells, the “B-ALL specimens sensitive with IC50<1 μM” value stood at 61%. Also, in the experiment on Raji cells, the cell cycle distribution result is recorded as “increase in cell population in G1 phase”. The activity at 10 µM on PIP5K1α stood at 100%; at PI3KC2α, 55%; on PIP5K1γ it was 103%; at PI3KC2γ, 63%; at PIP4K2α, 105%.
